Data taken from patent publication US20180320177A1, “COMPOSITIONS AND METHODS FOR THE TREATMENT OF LIVER FIBROSIS” (UNIVERSITY OF CONNECTICUT, priority 2015, published 2018).

Tested on: TIC cells
Assay: TIC cell proliferation (micrograph)
Type: cell-based
Details: 5 μM ICM versus DMSO (FIG. 14E)
Protocol: Cell culture, Cell transfection:HEK293T, Hela, Hep3B and MHCC97H cells were cultured and transfected using X-tremeGENE™ HP DNA transfection reagent (Roche) as described previously. CGR8 ES cells were cultured on 0.1% gelatin coated tissue-culture dish in knockout DMEM medium containing 15% ES qualified-Fetal Bovine Serum, 2 mM L-glutamin, 0.1 mM NEAA, 0.1 mM β-mercaptoethanol, 50 μg/ml penicillin-streptomycin and 10 ng/ml Leukemia inhibitory factor (LIF). TIC cells were cultured in DMEM-F12 medium containing Embryomax nucleotides, 2 mM L-glutamin, 0.1 mM NEAA, 20 ng/ml mouse EGF, 50 μg/ml penicillin-streptomycin and […].
FIG. 14A is Left, Western blot of HMGB2 and SOX2 protein in HEK293T cells transfected with 0.5 μg […] expression plasmid and 0, 1 or 2 μg Flag-HMGB2 expression plasmid. Right, Western blot of HMGB2 and OCT4 protein in HEK293T cells transfected with 0.5 μg HA-OCT4 expression plasmid and 0, 1 or 2 μg Flag-HMGB2 expression plasmid. […] CGR8 cells were lysed, co-immunoprecipitated with OCT4 antibody, followed by Western blot with HMGB2 or OCT4 antibodies. FIG. 14 C is a luciferase reporter assay. HepG2 cells were infected with AAV8-GFP or AAV8-HMGB2 24 hrs before being transfected with 6*OS luciferase reporter and OCT4, SOX2 expression plasmids alone or in combination.

SMILES: CC1(C)Oc2cc(O)ccc2C2C1=CCn1c(=O)n(-c3ccccc3)c(=O)n12 (stereo not shown) [ICM, inflachromene]
- TIC cell proliferation: decreases TIC cell proliferation
